Literature values, collected in patent US20090062268A1, “NOVEL INHIBITORS OF POLY(ADP-RIBOSE)POLYMERASE (PARP)” (LEAD THERAPEUTICS, INC., priority 2007, published 2009).
pKi: −log10 of the molar value. Where two headings read alike, the source gives them in different places.

Tests used:
PARP-1 = PARP-1 (Homo sapiens, UniProt P09874); details: Farmer et al., Nature 2005
[1] = tested on: BRCA2-deficient cell line V-C8; details: BRCA2-deficient V-C8 compared with the BRCA2 wild type control
CAPAN-1 cells = CAPAN-1 cells in DMEM with FCS (20% v/v), glutamine and antibiotics

PARP-1, sequence (P09874 whole entry, species assumed): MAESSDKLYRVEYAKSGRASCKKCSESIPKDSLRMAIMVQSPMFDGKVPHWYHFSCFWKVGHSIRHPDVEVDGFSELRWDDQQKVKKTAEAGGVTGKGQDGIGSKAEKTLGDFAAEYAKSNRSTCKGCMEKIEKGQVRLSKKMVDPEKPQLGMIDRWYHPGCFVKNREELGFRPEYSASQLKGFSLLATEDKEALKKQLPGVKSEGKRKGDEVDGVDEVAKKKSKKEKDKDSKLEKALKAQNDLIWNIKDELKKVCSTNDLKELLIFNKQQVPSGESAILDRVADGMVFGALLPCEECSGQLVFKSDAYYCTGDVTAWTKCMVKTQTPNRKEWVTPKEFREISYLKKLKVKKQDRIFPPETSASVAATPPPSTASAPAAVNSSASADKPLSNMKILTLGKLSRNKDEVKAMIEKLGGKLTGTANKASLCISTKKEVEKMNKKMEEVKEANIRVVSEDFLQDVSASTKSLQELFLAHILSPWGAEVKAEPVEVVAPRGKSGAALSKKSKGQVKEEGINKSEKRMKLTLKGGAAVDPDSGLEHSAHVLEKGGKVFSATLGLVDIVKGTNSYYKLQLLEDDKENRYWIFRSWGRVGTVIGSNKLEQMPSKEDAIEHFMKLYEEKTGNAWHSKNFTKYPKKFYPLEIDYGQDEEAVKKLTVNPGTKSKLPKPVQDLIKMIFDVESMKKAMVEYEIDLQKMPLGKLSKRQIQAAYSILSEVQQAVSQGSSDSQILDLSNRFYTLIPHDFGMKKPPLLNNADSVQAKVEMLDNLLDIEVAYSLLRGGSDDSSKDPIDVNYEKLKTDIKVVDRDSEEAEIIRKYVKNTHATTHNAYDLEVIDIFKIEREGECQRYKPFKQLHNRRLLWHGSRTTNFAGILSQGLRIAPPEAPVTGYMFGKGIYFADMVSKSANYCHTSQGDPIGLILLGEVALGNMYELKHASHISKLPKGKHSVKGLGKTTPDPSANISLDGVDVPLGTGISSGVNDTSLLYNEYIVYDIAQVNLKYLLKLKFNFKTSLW

SMILES	pKi (PARP-1; PARP-1 inhibitor)	sensitivity in clonogenic survival assay [1]	in vivo efficacy, tumor growth (BRCA2-deficient tumors)	sensitivity to PARP inhibition in clonogenic survival assay (CAPAN-1 cells)	pKi (PARP-1; moderately potent PARP-1 inhibitor)
CN(C)Cc1ccc(-c2nc3cccc4c3n2CCNC4=O)cc1 [AG14361]	8.30	exhibited sensitivity			
O=C1CCC(=O)N1c1cc(Cc2n[nH]c(=O)c3ccccc23)ccc1F [KU0058684]			in vivo efficacy in blocking the growth of BRCA2-deficient tumors	showing sensitivity	
Cc1nc2c(O)cccc2c(=O)[nH]1 [NU1025]		exhibited sensitivity			7.30
